{"source": "patent US8815828B2", "about": "“Therapeutic combinations for use in neoplasia” (University of Florida Research Foundation, Inc., priority 2008, dated 2014)", "key": {"T47D breast cancer cells": {"tested_on": "T47D breast cancer cells", "experiment": "Sulforhodamine B (SRB) colorimetric cytotoxicity assay, T47D", "type": "cell-based, human", "conditions": "for IC50: read-out: IC50 (cytotoxicity), agent alone", "method": "Data are the mean±SE of three different estimations.\nThe developed color was measured at 564 nm."}, "MCF7 breast cancer cells": {"tested_on": "MCF7 breast cancer cells", "experiment": "Sulforhodamine B (SRB) colorimetric cytotoxicity assay, MCF7", "conditions": "for IC50: read-out: IC50 (cytotoxicity), agent alone", "method": "After 48 hours, cells were harvested and processed for cytotoxicity determination by clonogenic assay. Data presented are the mean±SE of three different estimations.\nThe IC50 (the drug concentration needed to prevent cell proliferation by 50%) of TMZ was determined using a sulforhodamine B (SRB) colorimetric assay. This assay relies on the ability of SRB to bind the protein components of cells that have been fixed to tissue culture plates by trichloroacetic acid (TCA) (Vachai V, Kirtikara K. Sulforhodamine B colorimetric assay for cytotoxicity screening. Nat. Proto. 3: 1122-1116, 2006). MCF7 and T47D cells were seeded in 96-well plates at a density of 500 cells per well. After 24 hours, while the cells were in the log phase of cell growth, the cells were treated with different concentrations of TMZ (1-1000 μM) for 48 hours. […] The cells were subsequently fixed with 10% (w/v) of tricholoroacetic acid, washed with double distilled water, and stained with 0.4% SRB. Cells were then repeatedly washed with 1% (v/v) of acetic acid to remove the unbound dye. The protein bound dye was dissolved in 10 mM Tris-base solution (pH 10.5). The developed color was measured at 564 nm. The percentage of cell survival as a function of drug concentration was then plotted to determine the IC50 value."}, "[1]": {"tested_on": "T47D and MCF7 human breast cancer cell lines", "experiment": "Cytotoxicity by clonogenic assay (FIG. 3 legend), T47D and MCF7 stated jointly", "type": "cell-based", "conditions": "one value for both, read-out: IC50, agent alone"}, "[2]": {"tested_on": "MDA-MB468 and MDA-MB-231 human breast cancer cell lines", "experiment": "Cytotoxicity by clonogenic assay (FIG. 4 legend), MDA-MB468 and MDA-MB-231 stated jointly", "type": "cell-based", "conditions": "MDA-MB468 and MDA-MB-231 cell lines, one value for both; read-out: IC50, agent alone", "method": "After 48 hours, drugs were withdrawn and allowed to grow in fresh medium for determination of cytotoxicity by clonogenic assay. Data presented are the mean±SE of three different estimations. […] Data presented are the mean+/−SE of three different estimations."}, "[3]": {"tested_on": "MDA-MB-468 breast cancer cells", "experiment": "Sulforhodamine B (SRB) colorimetric cytotoxicity assay, MDA-MB-468", "conditions": "for IC50: read-out: IC50 (cytotoxicity), agent alone"}, "[4]": {"tested_on": "MDA-MB-231 breast cancer cells", "experiment": "Sulforhodamine B (SRB) colorimetric cytotoxicity assay, MDA-MB-231", "conditions": "for IC50: read-out: IC50 (cytotoxicity), agent alone"}, "Pol-β": {"target": "Pol-β (Homo sapiens, UniProt P06746)", "experiment": "In vitro base excision repair (BER) assay with 32P-U-DNA substrate", "type": "biochemical", "conditions": "dose-dependent manner (FIG. 2B)", "description": "The reaction conditions are described below. […] Data are representative of three different experiments.\nAn assay was developed that permits in vitro analysis of BER as described in FIG. 2A."}, "[5]": {"tested_on": "MCF7, T47D, MDA-MB-231 and MDA-MB-468 human breast cancer cell lines", "experiment": "Clonogenic assay (Example 5, FIG. 8), four breast cancer cell lines stated jointly", "type": "cell-based", "conditions": "one value for all cell lines of FIG. 8, read-out: IC50, agent alone", "method": "(§1) After 48 hours, drugs were withdrawn and allowed to grow in fresh medium for determination of cytotoxicity by clonogenic assay. The data presented are the mean±SE of three different estimations.\n(§2) To test this hypothesis, the IC50 of TMZ in four human breast cancer cell lines was determined using a clonogenic assay (Vachai et al., Nat. Proto. 3: 1122-1116, 2006). The cell lines used were MCF7, T47D (both ER/PR/HER2-positive), MDA-MB-231 and MDA-MB-468 (both triple-negative)."}, "MCF7 cells": {"tested_on": "MCF7 cells", "experiment": "Clonogenic assay (Example 5, FIG. 8), MCF7", "type": "cell-based", "conditions": "Homo sapiens, 48 hours, then fresh medium, read-out: IC50 of TMZ alone or in the named combination", "method": "as §1, §2"}, "T47D cells": {"tested_on": "T47D cells", "experiment": "Clonogenic assay (Example 5, FIG. 8), T47D", "type": "cell-based", "conditions": "Homo sapiens, 48 hours, then fresh medium, read-out: IC50 of TMZ alone or in the named combination", "method": "as §1, §2"}, "MDA-MB-468 cells": {"tested_on": "MDA-MB-468 cells", "experiment": "Clonogenic assay (Example 5, FIG. 8), MDA-MB-468", "type": "cell-based", "conditions": "Homo sapiens, 48 hours, then fresh medium, read-out: IC50 of TMZ alone or in the named combination", "method": "as §1, §2"}, "MDA-MB-231 cells": {"tested_on": "MDA-MB-231 cells", "experiment": "Clonogenic assay (Example 5, FIG. 8), MDA-MB-231", "type": "cell-based", "conditions": "Homo sapiens, 48 hours, then fresh medium, read-out: IC50 of TMZ alone or in the named combination", "method": "as §1, §2"}}, "note": "Read-outs that look alike come from different tables or passages of the source."}
{"smiles": "Nc1nc(OCc2ccccc2)c2nc[nH]c2n1", "note": "[BG, O^6-benzylguanine]", "values": [{"measurement": "IC50", "setting": "T47D breast cancer cells; T47D cells, 48 hours", "value": "~149", "unit": "µM"}, {"measurement": "IC50", "setting": "MCF7 breast cancer cells; MCF7 cells, 48 hours", "value": "~91", "unit": "µM"}, {"measurement": "IC50", "setting": "[1]", "value": "~75", "unit": "µM"}, {"measurement": "IC50", "setting": "[2]", "value": "~75", "unit": "µM"}, {"measurement": "IC50", "setting": "[3]; MDA-MB-468 cells, 48 hours", "value": "~100", "unit": "µM"}, {"measurement": "IC50", "setting": "[4]; MDA-MB-231 cells, 48 hours", "value": "~77", "unit": "µM"}]}
{"smiles": "Nc1cc(I)n([C@H]2C[C@H](O)[C@@H](COP(=O)(O)O)O2)c(=O)n1", "note": "[NSC-124854, 5′-cytidylic acid, 2′-deoxy-6-iodo-(9CI)]", "values": [{"measurement": "strand-displacement synthesis", "setting": "Pol-β; 32P-U-DNA substrate, in the presence of Fen-1", "value": "blocked"}, {"measurement": "Pol-β-mediated 1-nt incorporation", "setting": "Pol-β; 32P-U-DNA substrate", "value": "blocked"}, {"measurement": "complete repair of 32P-U-DNA by the SN-BER pathway", "setting": "Pol-β; with DNA ligase I", "value": "blocked"}, {"measurement": "complete repair of 32P-U-DNA by the LP-BER pathway", "setting": "Pol-β; with Fen-1 and DNA ligase I", "value": "blocked"}]}
{"smiles": "Cc1cc(S(=O)(=O)Nc2n[nH]c(Nc3ccc(Cl)cc3)n2)c(S)cc1Cl", "note": "[NSC-666715, Benzosulfonamide, 4-chloro-N-[5-[(4-chlorophenyl)amino]1H-1,2,4-triazol-3-yl]-2-mercapto-5-methyl-(9Cl)]", "values": [{"measurement": "IC50", "setting": "[1]", "value": "~100", "unit": "µM"}, {"measurement": "IC50", "setting": "[2]", "value": "~100", "unit": "µM"}, {"measurement": "IC50", "setting": "[5]", "value": 100, "unit": "µM"}]}
{"smiles": "Cn1nnc2c(C(N)=O)ncn2c1=O", "note": "[TMZ, Temozolomide]", "values": [{"measurement": "IC50", "setting": "T47D breast cancer cells; Homo sapiens, T47D, 48 h", "value": 303, "unit": "µM"}, {"measurement": "reduction of the IC50 of TMZ", "setting": "T47D breast cancer cells; T47D cells, TMZ with BG (2.5 μM)", "value": "about 4 fold"}, {"measurement": "reduction of the IC50 of TMZ", "setting": "T47D breast cancer cells; T47D cells, TMZ with NSC-666715 (15 μM)", "value": "about 1.1 fold"}, {"measurement": "reduction of the IC50 of TMZ", "setting": "T47D breast cancer cells; T47D cells, TMZ with both BG (2.5 μM) and NSC-666715 (15 μM)", "value": "about 8 fold"}, {"measurement": "IC50", "setting": "MCF7 breast cancer cells; Homo sapiens, MCF7, 48 h", "value": 303, "unit": "µM"}, {"measurement": "reduction of the IC50 of TMZ", "setting": "MCF7 breast cancer cells; MCF7 cells, TMZ with BG (2.5 μM)", "value": "about 4 fold"}, {"measurement": "reduction of the IC50 of TMZ", "setting": "MCF7 breast cancer cells; MCF7 cells, TMZ with NSC-666715 (15 μM)", "value": "about 1.5 fold"}, {"measurement": "reduction of the IC50 of TMZ", "setting": "MCF7 breast cancer cells; MCF7 cells, TMZ with both BG (2.5 μM) and NSC-666715 (15 μM)", "value": "about 7 fold"}, {"measurement": "reduction in the IC50 of TMZ", "setting": "MCF7 breast cancer cells; NSC-666715 and O6-benzylguanine in combination with temozolomide, cell line not stated at this place (figure matches MCF7)", "value": 7, "unit": "fold"}, {"measurement": "IC50", "setting": "MCF7 cells", "value": 331, "unit": "µM"}, {"measurement": "IC50", "setting": "T47D cells", "value": 334, "unit": "µM"}, {"measurement": "IC50", "setting": "MDA-MB-468 cells", "value": 298, "unit": "µM"}, {"measurement": "IC50", "setting": "MDA-MB-231 cells", "value": 334, "unit": "µM"}, {"measurement": "IC50", "setting": "[3]; Homo sapiens, MDA-MB-468, 48 h", "value": 316, "unit": "µM"}, {"measurement": "reduction of the IC50 of TMZ", "setting": "[3]; MDA-MB-468 cells, TMZ with BG (2.5 μM)", "value": "about 6 fold"}, {"measurement": "reduction of the IC50 of TMZ", "setting": "[3]; MDA-MB-468 cells, TMZ with NSC-666715 (15 μM)", "value": "about 0.1 fold"}, {"measurement": "reduction of the IC50 of TMZ", "setting": "[3]; MDA-MB-468 cells, TMZ with both BG (2.5 μM) and NSC-666715 (15 μM)", "value": "about 15 fold"}, {"measurement": "IC50", "setting": "[4]; Homo sapiens, MDA-MB-231, 48 h", "value": 344, "unit": "µM"}, {"measurement": "reduction of the IC50 of TMZ", "setting": "[4]; MDA-MB-231 cells, TMZ with BG (2.5 μM)", "value": "about 2.8 fold"}, {"measurement": "reduction of the IC50 of TMZ", "setting": "[4]; MDA-MB-231 cells, TMZ with NSC-666715 (15 μM)", "value": "about 1.5 fold"}, {"measurement": "reduction of the IC50 of TMZ", "setting": "[4]; MDA-MB-231 cells, TMZ with both BG (2.5 μM) and NSC-666715 (15 μM)", "value": "about 6.6 fold"}]}
{"smiles": "COc1cc(/C=C/C(=O)CC(=O)/C=C/c2ccc(O)c(OC)c2)ccc1O", "note": "[curcumin, (1E,6E)-1,7-bis(4-hydroxy-3-methoxy-phenyl)hepta-1,6-diene-3,5-dione]", "values": [{"measurement": "IC50", "setting": "[5]; Homo sapiens", "value": 5, "unit": "µM"}]}
